# Laboratory results from PubChem BioAssay AID248 (DTP/NCI, 2004).
# “And” between values parts separate entries of the source, which are not always exact repeats. Equal values may be shown once. Toxic doses and inconclusive results are not listed.
# System: L1210 leukemia ip in BDF1 mice, survival T/C
# Test: NCI In Vivo Anticancer Drug Screen. Data for tumor model L1210 Leukemia (intraperitoneal) in B6D2F1 (BDF1) mice
# Details: endpoint: mean survival time, higher = longer survival
# In short: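 In this screen, tumor-bearing mice given compound are compared to those given vehicle, and their survival values are reported as a treated-to-control quotient.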
# [1] = dose: 50.0 mg/kg/injection, schedule: Q01DX001 (ip), vehicle: saline
# [2] = dose: 100.0 mg/kg/injection, schedule: Q01DX001 (ip), vehicle: saline
# [3] = dose: 100.0 mg/kg/injection, schedule: Q01DX009 (ip), vehicle: saline
# [4] = dose: 200.0 mg/kg/injection, schedule: Q01DX001 (ip), vehicle: saline
# [5] = dose: 400.0 mg/kg/injection, schedule: Q01DX001 (ip), vehicle: saline
# [6] = dose: 100.0 mg/kg/injection, schedule: Q04DX003 (ip), vehicle: saline with Tween-80
# [7] = dose: 200.0 mg/kg/injection, schedule: Q04DX003 (ip), vehicle: saline with Tween-80
smiles,measurement,setting,value
CC(C)NCC(=O)c1ccc(O)c(O)c1,T/C,"dose: 20.0 mg/kg/injection, schedule: Q01DX Z (ip), vehicle: saline",98 % of control
same,T/C,"dose: 20.0 mg/kg/injection, schedule: Q#A X Z (ip), vehicle: methylcellulose (MC)",96 % of control
same,T/C,"dose: 25.0 mg/kg/injection, schedule: Q01DX Z (ip), vehicle: carboxymethylcellulose (CMC)",107 % of control
same,T/C,"dose: 25.0 mg/kg/injection, schedule: Q03DX Z (ip), vehicle: carboxymethylcellulose (CMC)",93 % of control
same,T/C,"dose: 29.0 mg/kg/injection, schedule: Q03HX024 (ip), vehicle: saline",95 % of control
same,T/C,"dose: 31.0 mg/kg/injection, schedule: Q01DX Z (ip), vehicle: carboxymethylcellulose (CMC)",106 % of control
same,T/C,"dose: 40.0 mg/kg/injection, schedule: Q01DX Z (ip), vehicle: saline",107 % of control and 89 % of control
same,T/C,"dose: 43.0 mg/kg/injection, schedule: Q03HX024 (ip), vehicle: saline",104 % of control
same,T/C,"dose: 49.0 mg/kg/injection, schedule: Q01DX Z (ip), vehicle: saline",122 % of control
same,T/C,[1],96 % of control
same,T/C,"dose: 50.0 mg/kg/injection, schedule: Q01DX Z (ip), vehicle: carboxymethylcellulose (CMC)",104 % of control
same,T/C,"dose: 50.0 mg/kg/injection, schedule: Q03DX Z (ip), vehicle: carboxymethylcellulose (CMC)",93 % of control
same,T/C,"dose: 59.0 mg/kg/injection, schedule: Q04DX003 (ip), vehicle: saline",94 % of control
same,T/C,"dose: 62.0 mg/kg/injection, schedule: Q01DX Z (ip), vehicle: carboxymethylcellulose (CMC)",119 % of control
same,T/C,"dose: 64.0 mg/kg/injection, schedule: Q03HX024 (ip), vehicle: saline",105 % of control
same,T/C,"dose: 80.0 mg/kg/injection, schedule: Q01DX Z (ip), vehicle: saline",97 % of control and 119 % of control
same,T/C,"dose: 88.0 mg/kg/injection, schedule: Q04DX003 (ip), vehicle: saline",100 % of control
same,T/C,"dose: 96.0 mg/kg/injection, schedule: Q03HX024 (ip), vehicle: saline",106 % of control
same,T/C,[2],107 % of control
same,T/C,[3],104 % of control
same,T/C,"dose: 100.0 mg/kg/injection, schedule: Q01DX Z (ip), vehicle: carboxymethylcellulose (CMC)",115 % of control
same,T/C,"dose: 100.0 mg/kg/injection, schedule: Q03DX Z (ip), vehicle: carboxymethylcellulose (CMC)",100 % of control
same,T/C,"dose: 100.0 mg/kg/injection, schedule: Q04DX003 (ip), vehicle: saline",103 % of control
same,T/C,"dose: 120.0 mg/kg/injection, schedule: Q03DX Z (ip), vehicle: methylcellulose (MC)",102 % of control
same,T/C,"dose: 125.0 mg/kg/injection, schedule: Q01DX Z (ip), vehicle: carboxymethylcellulose (CMC)",105 % of control
same,T/C,"dose: 131.0 mg/kg/injection, schedule: Q04DX003 (ip), vehicle: saline",98 % of control
same,T/C,"dose: 143.0 mg/kg/injection, schedule: Q01DX009 (ip), vehicle: saline",114 % of control
same,T/C,"dose: 143.0 mg/kg/injection, schedule: Q03HX024 (ip), vehicle: saline",101 % of control and 118 % of control
same,T/C,"dose: 160.0 mg/kg/injection, schedule: Q01DX Z (ip), vehicle: saline",104 % of control and 121 % of control
same,T/C,"dose: 196.0 mg/kg/injection, schedule: Q04DX003 (ip), vehicle: saline",104 % of control
same,T/C,[4],107 % of control
same,T/C,"dose: 200.0 mg/kg/injection, schedule: Q01DX009 (ip), vehicle: saline",115 % of control
same,T/C,"dose: 200.0 mg/kg/injection, schedule: Q03DX Z (ip), vehicle: carboxymethylcellulose (CMC)",100 % of control
same,T/C,"dose: 200.0 mg/kg/injection, schedule: Q04DX003 (ip), vehicle: saline",109 % of control
same,T/C,"dose: 210.0 mg/kg/injection, schedule: Q01DX009 (ip), vehicle: saline",184 % of control
same,T/C,"dose: 210.0 mg/kg/injection, schedule: Q03HX024 (ip), vehicle: saline",116 % of control
same,T/C,"dose: 240.0 mg/kg/injection, schedule: Q03DX Z (ip), vehicle: methylcellulose (MC)",113 % of control
same,T/C,"dose: 288.0 mg/kg/injection, schedule: Q01DX001 (ip), vehicle: saline",102 % of control
same,T/C,"dose: 288.0 mg/kg/injection, schedule: Q04DX003 (ip), vehicle: saline",154 % of control
same,T/C,"dose: 320.0 mg/kg/injection, schedule: Q01DX009 (ip), vehicle: saline",104 % of control
same,T/C,"dose: 320.0 mg/kg/injection, schedule: Q03HX024 (ip), vehicle: saline",111 % of control
same,T/C,[5],107 % of control
same,T/C,"dose: 400.0 mg/kg/injection, schedule: Q01DX009 (ip), vehicle: saline",107 % of control
same,T/C,"dose: 400.0 mg/kg/injection, schedule: Q01DX Z (ip), vehicle: carboxymethylcellulose (CMC)",111 % of control
same,T/C,"dose: 400.0 mg/kg/injection, schedule: Q03DX Z (ip), vehicle: carboxymethylcellulose (CMC)",114 % of control
same,T/C,"dose: 400.0 mg/kg/injection, schedule: Q04DX003 (ip), vehicle: saline",104 % of control
same,T/C,"dose: 430.0 mg/kg/injection, schedule: Q04DX003 (ip), vehicle: saline",103 % of control
same,T/C,"dose: 478.0 mg/kg/injection, schedule: Q01DX009 (ip), vehicle: saline",116 % of control
same,T/C,"dose: 480.0 mg/kg/injection, schedule: Q03DX Z (ip), vehicle: methylcellulose (MC)",102 % of control
NC(=O)c1nnc(-c2ccc(Cl)cc2)[nH]c1=O,T/C,[6],98 % of control
same,T/C,[7],98 % of control
same,T/C,"dose: 400.0 mg/kg/injection, schedule: Q04DX003 (ip), vehicle: saline with Tween-80",98 % of control
Oc1ccc(C(=S)N2CCOCC2)cc1,T/C,"dose: 100.0 mg/kg/injection, schedule: Q04DX003 (ip), vehicle: Klucel (hydroxypropylcellulose) (HPC)",97 % of control
same,T/C,"dose: 200.0 mg/kg/injection, schedule: Q04DX003 (ip), vehicle: Klucel (hydroxypropylcellulose) (HPC)",97 % of control
same,T/C,"dose: 400.0 mg/kg/injection, schedule: Q04DX003 (ip), vehicle: Klucel (hydroxypropylcellulose) (HPC)",98 % of control
N#CCCCN=[N+]=[N-],T/C,"dose: 37.5 mg/kg/injection, schedule: Q04DX003 (ip), vehicle: saline",104 % of control
O=C1CCC(C(=O)O)N1 (configuration not stated),T/C,"dose: 50.0 mg/kg/injection, schedule: Q01DX009 (ip), vehicle: saline with Tween-80",94 % of control
same,T/C,"dose: 100.0 mg/kg/injection, schedule: Q01DX009 (ip), vehicle: saline with Tween-80",94 % of control
same,T/C,[6],97 % of control
same,T/C,"dose: 200.0 mg/kg/injection, schedule: Q01DX009 (ip), vehicle: saline with Tween-80",86 % of control
same,T/C,[7],91 % of control
CCOC(=S)SCc1ccc([N+](=O)[O-])cc1,T/C,"dose: 100.0 mg/kg/injection, schedule: Q04DX002 (ip), vehicle: gum acacia",97 % of control
same,T/C,"dose: 200.0 mg/kg/injection, schedule: Q04DX002 (ip), vehicle: gum acacia",100 % of control
same,T/C,"dose: 400.0 mg/kg/injection, schedule: Q04DX002 (ip), vehicle: gum acacia",97 % of control
CCCC(C=NCC(CCC)(CCN(C)C)c1cccc2ccccc12)(CCN(C)C)c1cccc2ccccc12 (configuration not stated),T/C,"dose: 6.25 mg/kg/injection, schedule: Q04DX002 (ip), vehicle: Klucel (hydroxypropylcellulose) (HPC)",88 % of control
same,T/C,"dose: 12.5 mg/kg/injection, schedule: Q04DX002 (ip), vehicle: Klucel (hydroxypropylcellulose) (HPC)",101 % of control
same,T/C,"dose: 25.0 mg/kg/injection, schedule: Q04DX002 (ip), vehicle: Klucel (hydroxypropylcellulose) (HPC)",104 % of control
O=C(c1ccccc1)C(O)(CCP(=O)(c1ccccc1)c1ccccc1)c1ccccc1 (configuration not stated),T/C,"dose: 75.0 mg/kg/injection, schedule: Q01DX001 (ip), vehicle: carboxymethylcellulose (CMC)",88 % of control
same,T/C,"dose: 150.0 mg/kg/injection, schedule: Q01DX001 (ip), vehicle: carboxymethylcellulose (CMC)",96 % of control
O=C(OCCCl)c1ccco1,T/C,[2],102 % of control
same,T/C,[4],102 % of control
same,T/C,[5],107 % of control
CC[As](=O)(O)CC(C)C,T/C,[3],96 % of control
COC(=O)C1(C)CCCC2(C)c3cc(OC)ccc3C3OC3C12 (configuration not stated),T/C,"dose: 100.0 mg/kg/injection, schedule: Q04DX003 (ip), vehicle: other",103 % of control
same,T/C,"dose: 200.0 mg/kg/injection, schedule: Q04DX003 (ip), vehicle: other",100 % of control
same,T/C,"dose: 400.0 mg/kg/injection, schedule: Q04DX003 (ip), vehicle: other",101 % of control
Cc1cccc(NC#N)n1,T/C,"dose: 25.0 mg/kg/injection, schedule: Q01DX001 (ip), vehicle: Klucel (hydroxypropylcellulose) (HPC)",100 % of control
same,T/C,"dose: 50.0 mg/kg/injection, schedule: Q01DX001 (ip), vehicle: Klucel (hydroxypropylcellulose) (HPC)",98 % of control
same,T/C,"dose: 100.0 mg/kg/injection, schedule: Q01DX001 (ip), vehicle: Klucel (hydroxypropylcellulose) (HPC)",98 % of control and 101 % of control
O=C/C=C/c1cccc([N+](=O)[O-])c1,T/C,[1],102 % of control
same,T/C,[2],107 % of control
same,T/C,[4],111 % of control
